The values below come from publication PMC4111571 (Pharmaceutical research, 2012).

This data set is described as follows: Caco-2 cell monolayer bidirectional transport study. Format: in vitro ADME. To be noted: human, Caco-2, pH 7.4.

For orientation: Papp A→B means the apparent permeability from the apical to the basolateral side of a cell layer. A higher Papp A→B goes with fast passage. Broadly, the Papp B→A is the apparent permeability from the basolateral to the apical side of a cell layer. What is called efflux ratio is a quotient of directional permeabilities that is used to spot active efflux. As to `CC(C)NCC(O)COc1cccc2ccccc12` (stereo not drawn) [Propranolol], the Papp A→B at 2 h, 100 µM stood at 41.6 ± 2.4 ×10⁻⁶ cm/s; the Papp B→A at 2 h, 100 µM amounted to 21.3 ± 0.7 ×10⁻⁶ cm/s; the efflux ratio at 2 h, 100 µM came to 0.51.
